How the values were obtained:
[1] = test system: LPS-induced NO release in BV2 cells; experiment: Inhibition of LPS-induced NO release in BV2 cells; assay type: cell-based; details: Mus musculus, BV-2; for inhibition at 1 µM / inhibition at 3 µM: pretreated 1 h, then LPS 1 μg/mL for 24 h, BV2 cells; for IC50: BV2 cells, 0.3, 1.0, 3.0 μM, LPS 1 μg/mL 24 h, mean ± SD, n = 3, read-out: IC50 to inhibit LPS-induced NO release
Method: (§1) The BV2 microglial cells were purchased from the China Center for Type Culture Collection, CCTCC (Wuhan, Hubei). BV2 microglia cells were incubated in DMEM media supplemented with 10% (v/v) FBS, 100 U/mL penicillin G and […] streptomycin at 37 °C with 5% CO2.
Nitrite, a stable product of nitric oxide, was used to assess NO production. To study the effects of the compounds on NO production, BV2 microglia cells in the logarithmic phase were plated at 1 × 10^5 cells/well in a 24-well microplate and incubated in DMEM medium (10% FBS) overnight. The cells were pretreated with various concentrations of the test compounds for 1 h and further co-cultured with 1 μg/mL LPS and 5% CO2 for 24 h in a 37 °C incubator; then, the supernatant was taken and stored at −20 °C for NO detection. The target compound and LPS were configured with DMEM medium (2% FBS). The determination of NO was carried out according to the instructions. Unpretreated and unstimulated BV2 microglia cells were conducted as the blank control group. The absorbance value was determined at 540 nm, and the corresponding NO content was calculated by using the standard curve. The NO inhibitory rate of the various concentrations of agents in BV2 cells was calculated as per the following formula:Inhibition rate (%) = (LPS(NO concentration) − sample(NO concentration))/(LPS(NO concentration) − negative control(NO concentration)) × 100%.

[2] = MTT cell viability assay in BV2 microglia cells; assay type: cell-based; details: mouse, mean ± SD, n = 3
Method: as §1
Cell viability assays were evaluated using a 3-(4,5-dimethylthiazol-2-yl)-2,5-diphenyltetrazolium bromide (MTT) assay. BV2 microglia cells were seeded in 96-well plates at a density of 1.6 × 10^5 cells/well in complete medium and incubated for 24 h. Then, the culture medium was sucked and discarded, and sterile PBS was added for washing, and then PBS was removed. Then the cells were treated with different concentrations of target compounds for 24 h. An amount equal to 100 μL of MTT was added to each well and the cells were further incubated for 2–4 h. An amount equal to 150 μL of DMSO was added into a 96-well plate and vibrated with micro-oscillator for 10 min. The optical density (A) was measured at […] on a microplate reader. The inhibitory rate of the various concentrations of agents in BV2 cells was calculated using the following formula:Cell viability (%) = [A492 (sample) − A492 (blank)]/[A492 (control) − A492 (blank)] × 100%

Row | SMILES | inhibition at 1 µM [1] [%] | viability at 24 h, 1 µM [2] [%] | viability at 24 h, 3 µM [2] [%] | viability at 24 h, 10 µM [2] [%] | melting point [°C] | inhibition at 3 µM [1] [%] | IC50 [1] [nM]
1 | COc1ccc(/C=C/C(=O)/C=C/CCc2ccc(OC)c(OC)c2)cc1OC [CU-2, (1E,4E)-1,7-bis(3,4-dimethoxyphenyl)-1,4-heptadien-3-one] | 0 | 76.92 ± 0.19 | 49.2 ± 0.92 | 10.6 ± 1.13 | 97 to 99 | – | –
2 | COc1ccc(/C=C/C(=O)/C=C/CCc2ccccc2)cc1O [CU-8, (1E,4E)-1-(3-hydroxy-4-methoxyphenyl)-7-phenyl-1,4-heptadien-3-one] | – | 101.18 ± 0.04 | 97.4 ± 0.07 | 18.2 ± 0.86 | 72 to 74 | 18.8 | –
3 | COc1cc(/C=C/C(=O)/C=C/CCc2ccc(O)cc2)ccc1O [CU-17, (1E,4E)-1-(4-hydroxy-3-methoxyphenyl)-7-(4-hydroxyphenyl)-1,4-heptadien-3-one] | 0 | 99.36 ± 0.01 | 80.72 ± 0.2 | 32.4 ± 0.67 | 141 to 143 | – | –
4 | Cc1ccc(/C=C/C(=O)/C=C/CCc2ccccc2)cc1 [CU-16, (1E,4E)-7-phenyl-1-(p-tolyl)-1,4-heptadien-3-one] | – | 95 ± 0.08 | 88.57 ± 0.28 | 33.3 ± 1.2 | 46 to 48 | 15.4 | –
5 | O=C(/C=C/CCc1ccc(O)cc1)/C=C/c1ccc(O)cc1 [CU-1, (1E,4E)-1,7-bis(4-hydroxyphenyl)-1,4-heptadien-3-one] | 0 | 88.07 ± 0.19 | 49.84 ± 0.27 | 23.7 ± 0.38 | – | – | –
6 | O=C(/C=C/CCc1ccccc1)/C=C/c1ccccc1O [CU-5, (1E,4E)-1-(2-hydroxyphenyl)-7-phenyl-1,4-heptadien-3-one] | 0 | 95.68 ± 0.11 | 77.39 ± 0.3 | 15.9 ± 0.61 | 134 to 136 | – | –
7 | COc1cc(/C=C/C(=O)/C=C/CCc2ccc(O)c(OC)c2)ccc1O [CU-20, (1E,4E)-1,7-bis(4-hydroxy-3-methoxyphenyl)-1,4-heptadien-3-one] | 16.9 | 97.31 ± 0.03 | 51.8 ± 0.6 | 12.2 ± 0.21 | 103 to 105 | – | –
8 | COc1cc(/C=C/C(=O)/C=C/CCc2ccccc2)cc(OC)c1OC [CU-4, (1E,4E)-7-phenyl-1-(3,4,5-trimethoxyphenyl)-1,4-heptadien-3-one] | 3.1 | 107.23 ± 0.09 | 73.92 ± 0.3 | 16.6 ± 0.45 | 95 to 97 | – | –
9 | O=C(/C=C/CCc1cccc(O)c1)/C=C/c1ccccc1 [CU-24, (1E,4E)-7-(3-hydroxyphenyl)-1-phenyl-1,4-heptadien-3-one] | – | 103.49 ± 0.02 | 91.48 ± 0.07 | 23.17 ± 0.09 | 70 to 72 | 0 | –
10 | O=C(/C=C/CCc1ccccc1)/C=C/c1ccc(O)cc1 [CU-7, (1E,4E)-1-(4-hydroxyphenyl)-7-phenyl-1,4-heptadien-3-one] | 0 | 93.46 ± 0.35 | 52.8 ± 0.5 | 14.3 ± 0.7 | 121 to 123 | – | –
11 | COc1cc(CC/C=C/C(=O)/C=C/c2ccccc2)cc(OC)c1OC [CU-27, (1E,4E)-1-phenyl-7-(3,4,5-trimethoxyphenyl)-1,4-heptadien-3-one] | – | 116.1 ± 0.44 | 101.31 ± 0.03 | 38.9 ± 1.19 | – | 7.02 | –
12 | COc1cc(CC/C=C/C(=O)/C=C/c2ccccc2)ccc1O [CU-26, (1E,4E)-7-(4-hydroxy-3-methoxyphenyl)-1-phenyl-1,4-heptadien-3-one] | – | 107.17 ± 0.07 | 96.83 ± 0.02 | 12.8 ± 0.14 | 72 to 74 | 37.6 | –
13 | COc1ccc(CC/C=C/C(=O)/C=C/c2ccc(O)cc2)cc1 [CU-13, (1E,4E)-1-(4-hydroxyphenyl)-7-(4-methoxyphenyl)-1,4-heptadien-3-one] | – | 109.5 ± 0.27 | 91.4 ± 0.32 | 28.5 ± 1.3 | 136 to 138 | 0 | –
14 | O=C(/C=C/CCc1ccc(Cl)cc1)/C=C/c1ccccc1 [CU-28, (1E,4E)-7-(4-chlorophenyl)-1-phenyl-1,4-heptadien-3-one] | – | 95.71 ± 0.07 | 94.75 ± 0.05 | 81.65 ± 0.22 | 48 to 50 | 33.6 | –
15 | COc1cc(/C=C/C(=O)/C=C/CCc2ccccc2)ccc1O [CU-9, (1E,4E)-1-(4-hydroxy-3-methoxyphenyl)-7-phenyl-1,4-heptadien-3-one] | – | 99.38 ± 0.01 | 94.65 ± 0.07 | 14.8 ± 0.75 | 114 to 116 | 7.52 | –
16 | Cc1ccc(CC/C=C/C(=O)/C=C/c2ccccc2)cc1 [CU-22, (1E,4E)-1-phenyl-7-(p-tolyl)-1,4-heptadien-3-one] | – | 95.14 ± 0.05 | 88.76 ± 0.06 | 46.6 ± 0.59 | 62 to 64 | 48.2 | > 3000
17 | COc1ccc(/C=C/C(=O)/C=C/CCc2ccc(O)cc2)cc1O [CU-18, (1E,4E)-1-(3-hydroxy-4-methoxyphenyl)-7-(4-hydroxyphenyl)-1,4-heptadien-3-one] | 2.15 | 96.14 ± 0.03 | 46.6 ± 1.16 | 8.63 ± 0.373 | 152 to 154 | – | –
18 | O=C(/C=C/CCc1ccccc1)/C=C/c1cccc(O)c1 [CU-6, (1E,4E)-1-(3-hydroxyphenyl)-7-phenyl-1,4-heptadien-3-one] | – | 106.85 ± 0.1 | 100.07 ± 0.01 | 101.56 ± 0.03 | 94 to 96 | 22.1 | –
19 | COc1cc(CC/C=C/C(=O)/C=C/c2ccc(O)cc2)ccc1O [CU-12, (1E,4E)-7-(4-hydroxy-3-methoxyphenyl)-1-(4-hydroxyphenyl)-1,4-heptadien-3-one] | 0 | 92.03 ± 0.29 | 75.55 ± 0.17 | 12.7 ± 0.59 | – | – | –
20 | O=C(/C=C/CCc1ccc(O)cc1)/C=C/c1ccccc1 [CU-25, (1E,4E)-7-(4-hydroxyphenyl)-1-phenyl-1,4-heptadien-3-one] | – | 128.6 ± 0.14 | 96.93 ± 0.01 | 20.3 ± 0.59 | 75 to 77 | 0 | –
21 | COc1ccc(/C=C/C(=O)/C=C/CCc2ccc(OC)cc2)cc1 [CU-14, (1E,4E)-1,7-bis(4-methoxyphenyl)-1,4-heptadien-3-one] | – | 97.96 ± 0.01 | 97.44 ± 0.03 | 18.06 ± 0.1 | 65 to 67 | 49.7 | 2430 ± 450
22 | O=C(/C=C/CCc1ccccc1)/C=C/c1ccc(Cl)cc1 [CU-10, (1E,4E)-1-(4-chlorophenyl)-7-phenyl-1,4-heptadien-3-one] | – | 95.54 ± 0.03 | 95.27 ± 0.16 | 48.7 ± 2.93 | 70 to 72 | 0 | –
23 | Cc1ccc(CC/C=C/C(=O)/C=C/c2ccc(O)cc2)cc1 [CU-11, (1E,4E)-1-(4-hydroxyphenyl)-7-(p-tolyl)-1,4-heptadien-3-one] | – | 99.17 ± 0.01 | 91.61 ± 0.09 | 11.2 ± 0.56 | 132 to 134 | 0 | –
24 | O=C(/C=C/CCc1ccccc1)/C=C/c1ccccc1 [CU-15, (1E,4E)-1,7-diphenyl-1,4-heptadien-3-one] | – | 104.99 ± 0.03 | 103.11 ± 0.03 | 84.19 ± 0.21 | – | 13.7 | –
25 | COc1ccc(CC/C=C/C(=O)/C=C/c2ccccc2)cc1OC [CU-23, (1E,4E)-7-(3,4-dimethoxyphenyl)-1-phenyl-1,4-heptadien-3-one] | – | 106.5 ± 0.14 | 100.85 ± 0.01 | 12.3 ± 0.84 | – | 31.4 | –
